Data from patent US12583848B2, “Isoxazole-3-carboxamide derivatives and their use for treatment of diseases caused by virus infection” (Collaborations Pharmaceuticals, Inc., priority 2019, dated 2026).

Assays:
poliovirus = settings: mouse, in vivo; cited from earlier work
poliomyelitis virus = settings: cited from earlier work
rhinovirus A2 (RV-A2) = assay: organism not typed; type: cell-based; settings: HeLa, 72 h, read-out: IC50 against Rhinoviruses (RV) RV-A2
rhinovirus B14 (RV-B14) = assay: organism not typed; type: cell-based; settings: HeLa, 72 h, read-out: IC50 against Rhinoviruses (RV) RV-B14
[1] = test system: CVB3 97927-I1207M (pleconaril-resistant variant); type: cell-based, coxsackievirus B3
HeLa cells = settings: human
[2] = test system: CVB3 97927-I1207T (pleconaril-resistant variant); type: cell-based, coxsackievirus B3
[3] = test system: CVB3 97927-I1207K (pleconaril-resistant variant); type: cell-based, coxsackievirus B3
rhinovirus B5 (RV-B5) = assay: organism not typed; type: cell-based; settings: HeLa cells, CPE inhibition, 72 hours; n.a. = not active; read-out: IC50 against Rhinoviruses (RV) RV-B5
[4] = test system: coxsackievirus B3 I1207K and I1207R; settings: in vitro; cited from earlier work
[5] = test system: clinical isolates of enterovirus serotypes; settings: most of 215 clinical isolates of enterovirus serotypes; cited from earlier work
in vitro = settings: human, HeLa cells
PXR = PXR (Homo sapiens, UniProt O75469); assay: biochemical
[6] = test system: Enterovirus D68 (EV-D68 MP30 PP); type: in vivo, AG129 mice; settings: guanidine 100 mg/kg/d IP, days 1 and 3 post-infection

Chain of PXR (O75469 111-434 limits assumed): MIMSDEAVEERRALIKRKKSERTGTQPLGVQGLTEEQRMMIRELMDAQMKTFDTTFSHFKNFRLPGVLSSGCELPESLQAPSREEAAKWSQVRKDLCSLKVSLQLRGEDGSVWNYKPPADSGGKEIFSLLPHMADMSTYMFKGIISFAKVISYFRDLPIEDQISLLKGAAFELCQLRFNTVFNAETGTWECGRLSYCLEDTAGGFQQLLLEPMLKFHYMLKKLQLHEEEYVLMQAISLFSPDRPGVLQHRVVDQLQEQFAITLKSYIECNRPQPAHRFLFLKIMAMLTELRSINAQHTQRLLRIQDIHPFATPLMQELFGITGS

For `CCC(=O)C(CCCCCCOc1ccc(OC)cc1Cl)C(=O)CC` [Arildone], the “poliovirus-induced paralysis and death” value (poliovirus) is given as “prevents poliovirus-induced paralysis and death in mice” and the “replication of poliomyelitis virus in vitro” value (poliomyelitis virus) is given as “specifically inhibits replication of poliomyelitis virus in vitro”.

`Cc1cc(-c2noc(C(F)(F)F)n2)cc(C)c1OCCCc1cc(C(=O)NCc2ccccc2)no1` [Compound 1, N-benzyl-5-(3-{2,6-dimethyl-4-[5-(trifluoromethyl)-1,2,4-oxadiazol-3-yl]phenoxy}propyl)isoxazole-3-carboxamide] showed an IC50 (rhinovirus A2 (RV-A2)) of 230 nM, an IC50 (rhinovirus B14 (RV-B14)) of 250 nM and an IC50 [1] of 13100 nM. The CC50 (HeLa cells) was over 100000 nM.

Work on `CNC(=O)c1cc(CCCOc2c(C)cc(-c3noc(C(F)(F)F)n3)cc2C)on1` [Compound 2, 5-(3-{2,6-dimethyl-4-[5-(trifluoromethyl)-1,2,4-oxadiazol-3-yl]phenoxy}propyl)-N-methylisoxazole-3-carboxamide] yielded an IC50 (rhinovirus A2 (RV-A2)) of 210 nM, an IC50 (rhinovirus B14 (RV-B14)) of 20 nM and an IC50 [1] of 370 nM. For the same molecule, the Mutagenicity (Escherichia coli PQ37) was “NO” and the CC50 (HeLa cells) was over 100000 nM.

Molecule `Cc1cc(-c2noc(C(F)(F)F)n2)cc(C)c1OCCCc1cc(C(N)=O)no1` [Compound 3, 5-(3-{2,6-dimethyl-4-[5-(trifluoromethyl)-1,2,4-oxadiazol-3-yl]phenoxy}propyl)isoxazole-3-carboxamide] has an IC50 (rhinovirus A2 (RV-A2)) of 500 nM, an IC50 (rhinovirus B14 (RV-B14)) of 220 nM and an IC50 [1] of 1690 nM. It also gave a CC50 (HeLa cells) of over 100000 nM.

Work on `Cc1cc(-c2noc(C(F)(F)F)n2)cc(C)c1OCCCc1cc(C(=O)N(C)C)no1` [Compound 4, 5-(3-{2,6-dimethyl-4-[5-(trifluoromethyl)-1,2,4-oxadiazol-3-yl]phenoxy}propyl)-N,N-dimethylisoxazole-3-carboxamide] yielded an IC50 (rhinovirus A2 (RV-A2)) of 120 nM, an IC50 [2] of 1010 nM and an IC50 (rhinovirus B14 (RV-B14)) of 120 nM. The IC50 [3] was 8520 nM, the IC50 [1] was under 30 nM and the Mutagenicity (Escherichia coli PQ37) was “NO”. It also gave a CC50 (HeLa cells) of 13200 nM.

Work on `COc1cc(-c2noc(C(F)(F)F)n2)ccc1OCCCc1cc(C(=O)N(C)C)no1` [Compound 6, 5-(3-{2-methoxy-4-[5-(trifluoromethyl)-1,2,4-oxadiazol-3-yl]phenoxy}propyl)-N,N-dimethylisoxazole-3-carboxamide] yielded an IC50 (rhinovirus A2 (RV-A2)) of 1970 nM, an IC50 [2] of 1660 nM and an IC50 (rhinovirus B14 (RV-B14)) of 40 nM. It also gave an IC50 (rhinovirus B5 (RV-B5)) of 3280 nM, an IC50 [3] of 51700 nM and an IC50 [1] of 600 nM. The CC50 (HeLa cells) was 68000 nM.

Work on `CN(C)C(=O)c1cc(CCCOc2ccc(-c3noc(C(F)(F)F)n3)cc2[N+](=O)[O-])on1` [Compound 7, N,N-dimethyl-5-(3-{2-nitro-4-[5-(trifluoromethyl)-1,2,4-oxadiazol-3-yl]phenoxy}propyl)isoxazole-3-carboxamide] yielded an IC50 (rhinovirus A2 (RV-A2)) of 670 nM, an IC50 [2] of 30 nM and an IC50 (rhinovirus B14 (RV-B14)) of 280 nM. For the same molecule, the IC50 (rhinovirus B5 (RV-B5)) was 7630 nM, the IC50 [3] was 6460 nM and the IC50 [1] was 1 nM. The Mutagenicity (Escherichia coli PQ37) was “NO” and the CC50 (HeLa cells) was 22500 nM.

`CN(C)C(=O)c1cc(CCCOc2ccc(-c3noc(C(F)(F)F)n3)cc2F)on1` [Compound 9, 5-(3-{2-fluoro-4-[5-(trifluoromethyl)-1,2,4-oxadiazol-3-yl]phenoxy}propyl)-N,N-dimethylisoxazole-3-carboxamide] showed an IC50 (rhinovirus A2 (RV-A2)) of 3770 nM, an IC50 [2] of 1430 nM and an IC50 (rhinovirus B14 (RV-B14)) of 50 nM. The IC50 (rhinovirus B5 (RV-B5)) was 4040 nM, the IC50 [1] was 50 nM and the CC50 (HeLa cells) was 20200 nM.

With `COc1cc(-c2noc(C(F)(F)F)n2)cc([N+](=O)[O-])c1OCCCc1cc(C(=O)N(C)C)no1` [Compound 10, 5-(3-{2-methoxy-6-nitro-4-[5-(trifluoromethyl)-1,2,4-oxadiazol-3-yl]phenoxy}propyl)-N,N-dimethylisoxazole-3-carboxamide] the IC50 (rhinovirus A2 (RV-A2)) was 320 nM, the IC50 [2] was 840 nM and the IC50 (rhinovirus B14 (RV-B14)) was 200 nM. It also gave an IC50 [1] of 880 nM and a CC50 (HeLa cells) of 25600 nM.

In the case of `CN(C)C(=O)c1cc(CCCOc2ccc(-c3noc(C(F)(F)F)n3)cc2)on1` [Compound 11, N,N-dimethyl-5-(3-{4-[5-(trifluoromethyl)-1,2,4-oxadiazol-3-yl]phenoxy}propyl)isoxazole-3-carboxamide], the IC50 (rhinovirus A2 (RV-A2)) is reported as 4610 nM, the IC50 [2] is reported as 8110 nM and the IC50 (rhinovirus B14 (RV-B14)) is reported as 40 nM. The IC50 (rhinovirus B5 (RV-B5)) was 1740 nM, the IC50 [3] was 27500 nM and the IC50 [1] was 20 nM. The CC50 (HeLa cells) was 28000 nM.

In the case of `CN(C)C(=O)c1cc(CCCOc2ccc(-c3noc(C(F)(F)F)n3)cc2C(F)(F)F)on1` [Compound 12, N,N-dimethyl-5-(3-{2-(trifluoromethyl)-4-[5-(trifluoromethyl)-1,2,4-oxadiazol-3-yl]phenoxy}propyl)isoxazole-3-carboxamide], the IC50 (rhinovirus A2 (RV-A2)) is reported as 320 nM, the IC50 [2] is reported as 530 nM and the IC50 (rhinovirus B14 (RV-B14)) is reported as 6760 nM. The IC50 [3] was 7180 nM, the IC50 [1] was 160 nM and the Mutagenicity (Escherichia coli PQ37) was “NO”. For the same molecule, the CC50 (HeLa cells) was 19200 nM.

In the case of `CNC(=O)c1cc(CCCOc2ccc(-c3noc(C(F)(F)F)n3)cc2C(F)(F)F)on1` [Compound 13, N-methyl-5-(3-{2-(trifluoromethyl)-4-[5-(trifluoromethyl)-1,2,4-oxadiazol-3-yl]phenoxy}propyl)isoxazole-3-carboxamide], the IC50 (rhinovirus A2 (RV-A2)) is reported as 960 nM, the IC50 [2] is reported as 1040 nM and the IC50 [1] is reported as 60 nM. It also gave a CC50 (HeLa cells) of over 100000 nM.

In the case of `Cc1cc(CCCOc2c(C)cc(-c3noc(C(F)(F)F)n3)cc2C)on1` [Pleconaril, reference compound], the “antiviral activity against coxsackievirus B3 with I1207K or I1207R in VP1” value [4] is listed as “completely abolish the antiviral activity”, the IC50 [2] is listed as 9410 nM and the IC50 (rhinovirus B14 (RV-B14)) is listed as 60 nM. The IC50 [5] was at most 30 nM, the CC50 (in vitro) was 45200 nM and the IC50 (PXR) was over 100000 nM. It also gave an IC50 [1] of 4500 nM.

With “Guanidine HCl [Gua- HCl, reference compound]” the IC50 [2] was 807000 nM, the IC50 [3] was 705000 nM and the IC50 [1] was 725000 nM. For the same molecule, the “lung virus titers compared to placebo” value [6] was “reduction in virus titers”.
